Positions of bridges follow the written chain, without caps; N, C: chain ends. Residues, ends and D or L forms follow the SMILES beside them.
Experiments:
GPR68 [1] = target: T1, GPR68 (Homo sapiens, UniProt Q15743); assay: Dynamic mass redistribution (DMR), concentration-response; type: cell-based; parameters: hIL-2Ra signal peptide (N); expressed in transfected cells; details: GPR68; dynamic mass redistribution, concentration-response; mean, SEM and n (3-4)
Procedure, shortened: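 Doxycycline-induced (0.1 μg/ml) SNAP-tagged receptors in TREx 293 cells, equilibrated 90 min at 22°C in HEPES-buffered HBSS, pH 7.4, with 0.1% DMSO. Peptide-evoked optical wavelength shift recorded for 60 min at 22°C, buffer/solvent corrected and quantified as area under the curve. Mean ± SEM of at least 3 independent experiments.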
Target sequence in this assay (Q15743 2-365 limits assumed): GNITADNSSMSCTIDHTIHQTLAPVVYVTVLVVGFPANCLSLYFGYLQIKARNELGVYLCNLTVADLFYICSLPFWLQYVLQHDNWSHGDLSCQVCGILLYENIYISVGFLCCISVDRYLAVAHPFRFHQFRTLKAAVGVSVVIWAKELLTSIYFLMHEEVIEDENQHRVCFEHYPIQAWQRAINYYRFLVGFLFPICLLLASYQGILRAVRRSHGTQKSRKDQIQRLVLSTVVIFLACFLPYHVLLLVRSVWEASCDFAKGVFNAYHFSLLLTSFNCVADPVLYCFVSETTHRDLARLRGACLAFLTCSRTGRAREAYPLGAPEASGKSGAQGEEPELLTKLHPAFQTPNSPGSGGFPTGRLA

GPR68 [2] = target: T1, GPR68; assay: Real-time receptor internalization (TR-FRET), concentration-response; type: cell-based; parameters: hIL-2Ra signal peptide (N); expressed in transfected cells; details: GPR68; real-time internalization; mean, SEM and n (3)
Procedure: 48 hr prior to parallel assaying, SNAP-tagged oGPCR cells were plated (10,000 cells/well) in fibronectin-coated 384-well Epic biosensor microplates (Corning) and poly-D-lysine coated white 384-well plates (for internalization assays). SNAP- GLP-1 receptor was plated alongside orphan receptor cells as an internal assay control for internalization assays. Receptor-expression was induced with 0.1 μg/ml doxycycline.
A TR-FRET real-time internalization assay was used to examine peptide-dependent changes in orphan receptor localization as described previously ([Foster and Bräuner-Osborne, 2018]). Surface-expressed SNAP-tagged receptors were labeled with a cell-impermeable luminescent terbium cryptate (100 nM SNAP Lumi4-Tb; Cisbio, France) for 1 hr at 37°C. Cells were washed to remove excess terbium and incubated with fluorescein-O-acetic acid (100 μM; Sigma Aldrich) for 5 min at 37°C. Peptides were added as for DMR assays, and internalization responses were recorded for 60 min at 37°C using an EnVision 2104 Multimode plate reader (PerkinElmer). 100 nM GLP-1 was used as a positive control for SNAP-GLP1R internalization. Real-time internalization responses were calculated based on TR-FRET (excitation 340 nm; emission 520 nm and 615 nm), and were expressed as the ratio between donor (terbium) and acceptor (fluorescein) emission. For peptide screening analysis (both DMR and internalization assays), we calculated the area under the curve from the real-time traces. As the magnitude of the responses was variable between orphan receptor targets, particularly for the SNAP-tag based internalization assay where the signal is dependent on receptor surface expression, the AUC values were normalized to their respective plate averages and expressed as fold change. Validation experiments for receptor internalization were performed as above. Internalization data was processed in MS-Excel and area under the curve was used to generate concentration-response curves using GraphPad Prism 7.0. Data represent mean ± standard error of the mean (SEM) from at least 3 biologically independent experiments.
Target sequence in this assay (Q15743 2-365 limits assumed): as above

HA-OGR1 (GPR68) = target: T2, HA-OGR1 (GPR68) (Homo sapiens, UniProt Q15743); assay: Ca2+ mobilization assay (Fluo-4); type: cell-based; details: GPR68, calcium mobilization, mean, SEM and n (3-5) in separate columns
T2 construct: HA; expressed in transfected cells
T2 sequence (Q15743 whole entry): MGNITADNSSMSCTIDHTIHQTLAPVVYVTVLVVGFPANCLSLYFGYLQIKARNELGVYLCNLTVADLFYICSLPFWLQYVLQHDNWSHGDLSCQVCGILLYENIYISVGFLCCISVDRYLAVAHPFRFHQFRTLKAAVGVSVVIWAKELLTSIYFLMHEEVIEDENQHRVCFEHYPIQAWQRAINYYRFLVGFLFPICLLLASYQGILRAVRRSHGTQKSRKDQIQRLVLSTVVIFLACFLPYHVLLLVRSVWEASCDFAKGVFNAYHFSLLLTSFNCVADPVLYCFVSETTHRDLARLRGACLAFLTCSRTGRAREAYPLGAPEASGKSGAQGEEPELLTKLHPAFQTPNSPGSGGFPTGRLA
Procedure: Peptide-dependent Ca^2+ mobilization responses were measured in HEK293 stable cell lines (HA-OGR1 (GPR68) and vector pcDNA) ([Saxena et al., 2012]) that were seeded in 96-well plates (1 × 10^5 cells/well) and cultured at 37°C with 5% CO2 to near confluence in DMEM with 10% FBS (Corning). Six hours prior to assay, medium was changed to pH 8.0 or pH 7.4 HAM’s F12 Nutrient Mixture (GIBCO) without FBS and transferred to a 37°C incubator without CO2. One hour prior to stimulation, cells were incubated in pH 8.0 or pH 7.4 HBSS with Ca^2+ and Mg^2+ (GIBCO), supplemented with 15 mM HEPES, 2 μM Fluo-4 AM (Invitrogen) and 1.5 mM probenecid ([…] to prevent Fluo-4 efflux) as described previously ([Pera et al., 2018]). Indicated peptides were pipetted using an automated system and emission signal was recorded at 525 nm after excitation at 485 nm using Flex Station III (Molecular Devices). Ca^2+ mobilization responses were determined by subtracting basal fluorescence from the net peak of agonist-induced fluorescence. Ionomycin (1 μM) was used to calculate the maximum Ca^2+ signal to normalize peptide-mediated responses.

GPR68 [3] = target: T1, GPR68; assay: GloSensor cAMP assay (Gs), allosteric operational model fitting; type: cell-based; parameters: expressed in transfected cells; host or cells: HEK293T, transient (PEI), co-transfected with GloSensor cAMP plasmid; details: GPR68; GloSensor cAMP; mean, SEM and n (4)
Procedure: GPR68-mediated cAMP signaling was measured using GloSensor cAMP assays as published previously ([Huang et al., 2015], [Yu et al., 2019]) with modifications as indicated below. Calcium- and magnesium-free HBSS was supplemented with different organic buffer reagents for different pH solutions, 20 mM 2-(N-morpholino)ethanesulfonic acid (MES, Alfa Aesar) for pH 6.00 – 6.70, 20 mM 4-(2-hydroxyethyl)-1-piperazineethanesulfonic acid (HEPES, Fisher) for pH 6.80 – 8.20, and 20 mM (tris(hydroxymethyl)methylamino)propanesulfonic acid (TAPS) for pH 8.30 – 8.60. The phosphodiesterase (PDE) inhibitor Ro 20-1724 (10 μM final, Cayman Chemical) was included in pH buffers to eliminate potential effect of PDE […]. HEK293T cells were transfected with a modified polyethylenimine (PEI, Polysciences) transfection method ([Longo et al., 2013]). For a 15-cm dish of HEK293T cells with 25 mL growth medium, 8 μg receptor DNA and 8 μg GloSensor DNA (Promega) were mixed in 1 mL of Opti-MEM medium followed by addition of 80 μL PEI reagents. The mixture was added to cells after 20 min incubation at room temperature. Overnight transfected cells were plated in poly-L-lysine (Sigma) coated 384-well white clear bottom plates (Greiner Bio-One, #781098) using DMEM (Corning) + 1% dialyzed FBS (Omega Scientific) for at least 6 h (up to 24 h). Cells were removed of medium before receiving 20 μL/well of 3.5 mM luciferin (Goldbio) prepared in assay buffer (HBSS, 20 mM TAPS, pH 8.40, 10 μM Ro 20-1724) for 1 h at 37°C. Luciferin loading solutions were removed and premixed drug solutions at desired pH conditions were added to cells (25 μL/well). Luminescence was measured 25-30 min after drug application. Results were normalized (basal and maximum responses in the absence of modulator were set to be 0 and 100%) and pooled for analysis using GraphPad Prism.
All of the other parameters, including allosteric affinity cooperativity (α), allosteric modulator binding affinity KB, orthosteric agonist (protons) efficacy τA, system maximal response, and slope factor n were all globally shared for all datasets for each modulator. […] We therefore used an allosteric index, log(αβ/KB) ([Kenakin, 2017a]), which contains both allosteric binding affinity and cooperativity, to quantify the overall allosteric activity.
Target sequence in this assay (Q15743 whole entry): as above

MAS1 = target: T3, MAS1 (Homo sapiens, UniProt P04201); assay: β-arrestin recruitment (Tango), indicative pairing; type: cell-based; details: mean, n = 3
T3 construct: host or cells: HTLA cells (HEK293-derived)
T3 sequence (P04201 1-325): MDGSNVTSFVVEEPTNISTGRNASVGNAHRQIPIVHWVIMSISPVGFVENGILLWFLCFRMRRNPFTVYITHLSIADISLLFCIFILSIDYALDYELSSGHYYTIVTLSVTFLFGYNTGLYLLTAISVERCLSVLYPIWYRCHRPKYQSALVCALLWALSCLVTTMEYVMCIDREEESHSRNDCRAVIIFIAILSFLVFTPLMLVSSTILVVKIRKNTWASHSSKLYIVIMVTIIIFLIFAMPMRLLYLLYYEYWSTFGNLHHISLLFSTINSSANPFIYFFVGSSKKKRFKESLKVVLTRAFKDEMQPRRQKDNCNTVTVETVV
Procedure: The peptide library was additionally screened against 120 GPCR targets in parallel, including all available orphan receptors and 27 known class A peptide receptors using the Tango assay platform ([Kroeze et al., 2015]). Briefly, HTLA cells (a HEK293 cell line stably expressing a tTA-dependent luciferase reporter and a β-arrestin2-TEV fusion gene) were plated 10,000 cells/well in poly-L-lysine–coated clear-bottom white 384-well plates in DMEM supplemented with 10% FBS, 100 U/ml penicillin and 100 μg/ml streptomycin, 2 μg/ml puromycin and 100 μg/ml hygromycin B. 24 hr later, cells were transfected with Tango GPCR constructs using the calcium phosphate method ([Jordan et al., 1996]). The next day, culture medium was changed to DMEM + 1% dFBS and 10 μM peptides were added for overnight stimulation. Bright-Glo solution (Promega) was incubated for 15–20 min at room temperature, and luminescence was counted using a Trilux luminescence counter (Wallac).
For subsequent peptide validation experiments using Tango assays, HTLA cells were transiently transfected in 10 cm dishes with the receptor of interest using polyethylenimine (PEI) ([Longo et al., 2013]). After 24 hr, 25,000 cells/well were plated in clear bottom, white-walled 384-well plates. Assays were performed as described above, with luminescence measured using an EnSpire 2300 Multimode plate reader (PerkinElmer). Luminescence counts were exported into Excel and were analyzed using GraphPad Prism 7.

[4] = tested on: 120 GPCR targets, including all available orphan receptors and 27 known class A peptide receptors; assay: Peptide library screen, β-arrestin recruitment (Tango, fold change, 10 μM); type: cell-based, human; details: for Active at: (activity in b-arrestin recruitment assays): Tango, receptor(s) at which the known library peptide was active, among its known GPCR target(s), validated pairings; for Confirmation of known target in Tango: repeat hitters of the peptide library screen, the value names the known receptor(s) confirmed in the β-arrestin recruitment (Tango) screen
Procedure, shortened: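 HTLA cells (HEK293 with tTA-dependent luciferase and β-arrestin2-TEV) transiently transfected with Tango GPCR constructs, then stimulated overnight with 10 μM peptides in 1% dFBS medium. Luciferase luminescence read after 15–20 min Bright-Glo incubation at room temperature.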

MRGPRX2 = target: T4, MRGPRX2 (Homo sapiens, UniProt Q96LB1); assay: β-arrestin recruitment (Tango), known peptide receptors; type: cell-based; details: mean, n = 3
T4 construct: host or cells: HTLA cells (HEK293-derived)
T4 sequence (Q96LB1 1-330): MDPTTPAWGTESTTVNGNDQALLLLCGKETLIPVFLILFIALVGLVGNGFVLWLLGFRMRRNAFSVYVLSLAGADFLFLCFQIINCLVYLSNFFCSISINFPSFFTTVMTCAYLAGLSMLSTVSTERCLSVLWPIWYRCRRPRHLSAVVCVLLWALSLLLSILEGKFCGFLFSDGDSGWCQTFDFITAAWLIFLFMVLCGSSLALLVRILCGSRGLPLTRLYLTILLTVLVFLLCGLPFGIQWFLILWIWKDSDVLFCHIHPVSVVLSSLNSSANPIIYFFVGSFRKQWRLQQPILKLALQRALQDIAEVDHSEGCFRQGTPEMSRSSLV

Molecule: CC[C@H](C)[C@H](NC(=O)[C@H](CCCNC(=N)N)NC(=O)[C@H](C)NC(=O)CNC(=O)[C@H](CCCCN)NC(=O)[C@H](CCCNC(=N)N)NC(=O)[C@@H](NC(=O)[C@H](C)NC(=O)[C@@H]1CSSC[C@H](NC(=O)[C@H](CCSC)NC(=O)[C@@H]2CCCN2C(=O)[C@@H](NC(=O)[C@H](CCC(N)=O)NC(=O)CNC(=O)[C@@H](N)Cc2ccc(O)cc2)C(C)C)C(=O)N[C@@H](CC(=O)O)C(=O)N[C@@H](C)C(=O)NCC(=O)N[C@@H](CCC(=O)O)C(=O)N[C@@H](CCC(N)=O)C(=O)N1)C(C)C)C(N)=O [139 original] (H-YGQVPMCDAGEQCAVRKGARI-NH2; disulfide 7-13; N-terminus assumed)
- DMR assays Emax (peak or AUC) (GPR68 [1]): 944453
- Internalization assays Emax (AUC) (GPR68 [2]): 9.4
- Emax (HA-OGR1 (GPR68); read-out: Calcium mobilization assays Emax (% ionomycin)): 73.1%
- EC50 (HA-OGR1 (GPR68); read-out: Calcium mobilization assays pEC50 (converted)): 7.08 µM

Molecule: CC[C@H](C)[C@H](NC(=O)[C@H](CCCNC(=N)N)NC(=O)[C@H](C)NC(=O)CNC(=O)[C@H](CCCCN)NC(=O)[C@H](CCCNC(=N)N)NC(=O)[C@@H](NC(=O)[C@H](C)NC(=O)[C@@H]1CSSC[C@H](NC(=O)[C@H](CCSC)NC(=O)[C@@H]2CCCN2C(=O)[C@@H](NC(=O)[C@H](CCC(N)=O)NC(=O)CNC(=O)[C@@H](N)Cc2ccc(O)cc2)C(C)C)C(=O)N[C@@H](CC(=O)O)C(=O)N[C@@H](C)C(=O)NCC(=O)N[C@@H](CCC(=O)O)C(=O)N[C@@H](CCC(N)=O)C(=O)N1)C(C)C)C(N)=O [139 resynthesized] (H-YGQVPMCDAGEQCAVRKGARI-NH2; disulfide 7-13; N-terminus and C-terminus assumed)
- DMR assays Emax (peak or AUC) (GPR68 [1]): 749669
- Internalization assays Emax (AUC) (GPR68 [2]): 13.6
- GloSensor cAMP assays Emax (fold change) (GPR68 [3]): 25.2 fold change

Molecule: AGCKNFFWKTFTSC (disulfide) [Peptide 103]
- pEC50, Tango (fold over basal) (MAS1): 4.33
- Active at: (activity in b-arrestin recruitment assays) [4]: SST2
- Confirmation of known target in Tango [4]: SST2
- Emax, Tango (fold over basal) (MRGPRX2): 6.6 fold over basal
- pEC50, Tango (fold over basal) (MRGPRX2): 4.98

Molecule: DRMPCRNFFWKTFSSCK (disulfide) [Peptide 121]
- pEC50, Tango (fold over basal) (MAS1): 4.96
- Confirmation of known target in Tango [4]: SST2

Molecule: KPLRKDENGTSVAEYPMSASQSNKGVDVNNAVV [Peptide 193]
- Emax, Tango (fold over basal) (MAS1): 1.3 fold over basal
- pEC50, Tango (fold over basal) (MAS1): 9.32

Molecule: YGGFLRRIRPKLKWDNQ [Peptide 119]
- pEC50, Tango (fold over basal) (MAS1): 5.04
- Active at: (activity in b-arrestin recruitment assays) [4]: kappa
- Confirmation of known target in Tango [4]: kappa, mu

Source: publication PMC6838683, “Discovery of Human Signaling Systems: Pairing Peptides to G Protein-Coupled Receptors” (Cell, 2019)
